From PMC12127850 (RSC Medicinal Chemistry, 2025)
Counter-ions that a name gives are not always drawn.

Assays:
Assay type in all cases: cell-based
[1] = biological target: T1, prostate-specific membrane antigen (PSMA) (Homo sapiens, UniProt Q04609); assay: competitive displacement of […]-PSMA-1007 in PSMA-expressing LNCaP cells
[2] = biological target: T1, prostate-specific membrane antigen (PSMA); assay: in vivo PET blocking of […]-PSiMA uptake in LNCaP tumors
[3] = biological target: T1, prostate-specific membrane antigen (PSMA); assay: blocking of […]-PSiMA uptake in LNCaP cells by […] 2-PMPA

T1 sequence (Q04609 whole entry): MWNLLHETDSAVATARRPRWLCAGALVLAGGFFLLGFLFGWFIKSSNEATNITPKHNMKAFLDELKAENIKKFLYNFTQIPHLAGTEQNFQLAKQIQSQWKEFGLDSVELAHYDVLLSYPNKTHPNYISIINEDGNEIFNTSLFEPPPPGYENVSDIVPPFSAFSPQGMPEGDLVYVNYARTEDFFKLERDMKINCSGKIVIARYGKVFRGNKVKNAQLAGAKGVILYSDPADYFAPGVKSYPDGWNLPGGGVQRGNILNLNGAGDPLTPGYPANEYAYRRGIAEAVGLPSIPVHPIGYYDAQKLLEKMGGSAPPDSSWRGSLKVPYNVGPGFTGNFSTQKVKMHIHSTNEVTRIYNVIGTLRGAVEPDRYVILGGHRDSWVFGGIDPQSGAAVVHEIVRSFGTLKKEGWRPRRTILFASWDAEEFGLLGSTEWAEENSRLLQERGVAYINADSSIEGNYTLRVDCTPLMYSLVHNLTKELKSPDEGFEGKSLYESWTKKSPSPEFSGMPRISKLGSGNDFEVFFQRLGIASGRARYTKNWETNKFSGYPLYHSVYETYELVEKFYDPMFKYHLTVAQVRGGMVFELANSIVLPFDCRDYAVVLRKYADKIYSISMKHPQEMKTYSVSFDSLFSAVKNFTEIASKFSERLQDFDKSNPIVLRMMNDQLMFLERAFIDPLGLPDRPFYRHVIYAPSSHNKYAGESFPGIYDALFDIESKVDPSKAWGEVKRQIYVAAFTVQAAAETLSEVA

CC(C)(C)[Si](F)(c1ccc(C(=O)N[C@H](CC(=O)O)C(=O)N[C@H](CC(=O)O)C(=O)NCC[N+](C)(C)CCn2cc(CCCCCCCCC(=O)NCCCC[C@H](NC(=O)N[C@@H](CCC(=O)O)C(=O)O)C(=O)O)nn2)cc1)C(C)(C)C [compound 14, {2-[(2R)-3-Carboxy-2-[(2R)-3-carboxy-2-({4-[di-tert-butyl(fluoro)silyl]phenyl}formamido)propanamido]propanamido]ethyl}({2-[4-(8-{[(5S)-5-carboxy-5-({[(1S)-1,3-dicarboxypropyl]carbamoyl}amino)pentyl]carbamoyl}octyl)-1H-1,2,3-triazol-1-yl]ethyl})dimethylazanium trifluoroacetate]
IC50 [1]: 0.154 ± 0.047 µM

O=C(O)CC[C@H](NC(=O)N[C@@H](CCCCNC(=O)c1ccc(F)nc1)C(=O)O)C(=O)O [DCFPyL]
% reduction of tumor uptake [2]: 20 ± 10 % reduction of tumor uptake

O=C(O)CCC(CP(=O)(O)O)C(=O)O (stereo not drawn) [2-PMPA, 2-(phosphonomethyl)pentanedioic acid]
% blocking at 1 μM [3]: 75 % blocking at 1 μM
